Experiments:
p53 = assay: inhibition of p53
caspase = assay: inhibition of caspase
[1] = test system: 32D cl 3 mouse hematopoietic progenitor cells; assay: radioprotection, survival curves of irradiated 32D cl 3 cells; format: cell-based; conditions: for radioprotective effect on cells: 10 μM, compound added before or after radiation; for Do (Gy): compound at 10 μM, ionizing radiation survival curve
Procedure: To measure the level of radioprotection for compounds in Table 3, a DMSO solution is made for each compound and added to 32D cl 3 cells, a mouse hematopoietic progenitor cell line at a final concentration of 10 μM. The terms “radioprotection” and “radioprotective” refer to the protective effect on normal cells exerted by the captioned compounds when such cells are exposed to ionizing radiation.
FIGS. 2-4 show the survival curves for 32D cl 3 cells in the presence of different compounds of the invention. A strong radioprotective effect is seen in cultures that include the captioned compounds. FIGS. 2 and 3 show cell survival curves when the captioned compounds were added to cell cultures before exposure to radiation. The survival curves in FIG. 4, however, show the radioprotective effect of the inventive compounds when delivered to cell cultures after exposure to ionizing radiation. […] Moreover, the extent of radioprotection in a culture that is pretreated with an inventive compound is similar to that observed in a culture in which such compound is added after exposure to radiation.
The extent of radioprotection afforded by the captioned compounds is determined by measuring the fraction of viable cells in a culture containing the captioned radioprotective agent. The fraction of viable cells is determined by back-extrapolating the linear portion of the shoulder width in a survival curve to the Y-axis.

E. coli FabD = target: T1, E. coli FabD (Escherichia coli, UniProt P0AAI9); assay: in vitro FabD (MCAT) enzyme inhibition assay, HPLC of CoA peak; format: biochemical; conditions: protocol of Molnos et al.
T1 construct: made in house; host or cells: E. coli
Procedure: Compounds synthesized using MCR, as described above, were tested for their ability to inhibit FabD using an in vitro inhibition assay. Briefly, FabD and holo-ACP was cloned, and expressed in E. coli according to the protocol of Molnos et al., Anal. Biochem. 2003, 319, 171. The proteins were purified using the ACTA protein purification system. The inhibition study was carried out according to the protocol of Miossec et al., American Society for Microbiology 104th General Meeting, New Orleans, 2004 (LA. Abstract: K-001), and was performed in a final volume of 100 μl in 96-well microtiter plates (IEA/RIA black, flat bottom, half area plates, Costar).
Purified E. coli FabD was diluted in the enzyme dilution buffer (100 mM phosphate buffer pH 7, DTT 1.5 mM, BSA 1 mg/ml [30 ml of Assay buffer+30 mg of BSA]) at ten times the final concentration (0.75 ng/ml). Malonyl-CoA (10 mM, Sigma) was diluted to ten times the final concentration (25 uM) with distilled H2O. Holo-ACP was prepared to 874 μM. […] The reaction mixture was analyzed by anion exchange, high performance liquid chromatography, using a PL-SAX8u 4.6 mm×150 mm column (Polymer Laboratories) and UV-detection (CoA and malonyl-CoA are detected at 254 nm). The percent inhibition of FabD was calculated by integrating the area of the CoA peak in the chromatogram. […]

T1 sequence (P0AAI9 whole entry): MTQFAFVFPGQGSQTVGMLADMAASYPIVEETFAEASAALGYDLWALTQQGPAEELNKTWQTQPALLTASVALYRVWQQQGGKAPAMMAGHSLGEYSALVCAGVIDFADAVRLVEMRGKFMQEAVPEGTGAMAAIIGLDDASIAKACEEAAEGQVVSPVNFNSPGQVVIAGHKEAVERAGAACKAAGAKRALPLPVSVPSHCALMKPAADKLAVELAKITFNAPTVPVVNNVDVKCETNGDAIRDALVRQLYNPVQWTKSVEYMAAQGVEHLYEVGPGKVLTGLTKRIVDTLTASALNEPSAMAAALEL

In the case of `COC(=O)CNC(=O)C(NC1CCSC1=O)C1CC1` (racemic) [BEB 69], the “inhibition of p53” value (p53) is reported as “p53 inhibitors” and the inhibition of caspase (caspase) is reported as “inhibit caspase”.
For `Cc1cn(CC(NC2CCSC2=O)C(=O)NC(C)(C)C)c(=O)[nH]c1=O` (racemic) [SK7], the inhibition of caspase (caspase) was “inhibit caspase”, the “radioprotective effect on cells” value [1] was “potent radioprotective effect” and the “Do (Gy)” value [1] was 1.1 ± 0.1 Gy.
In the case of `O=C(NCc1ccccc1)[C@@H]1CSC(=O)[C@H](Cc2ccccc2)N1` (single isomer, unassigned) [BEB 75-1], the “radioprotective effect on cells” value [1] is reported as “potent radioprotective effect” and the “Do (Gy)” value [1] is reported as 0.9 ± 0.1 Gy.
In the case of `Clc1ccc(-c2ncn(CC3CC3)c2-c2c[nH]c3ccccc23)cc1` [BEB 55], the “inhibition of p53” value (p53) is reported as “inhibitors of p53” and the “Do (Gy)” value [1] is reported as 1.1 ± 0.1 Gy.
`Clc1cccc(Cc2ncn(CC3CC3)c2-c2c[nH]c3ccccc23)c1` [BEB 59] was tested, and the “inhibition of p53” value (p53) was “inhibitors of p53” and the “Do (Gy)” value [1] was 1.1 ± 0.1 Gy.
In the case of `CC(C)=CCC[C@H](C)CC(NC1CCSC1=O)C(=O)NC(c1ccccc1)c1ccccc1` (stereo partly drawn) [Compound 13a, (S)-4,8-Dimethyl-2-(2-oxo-tetrahydro-thiophen-3-ylamino)-non-7-enoic acid benzhydryl-amide], the “ability to inhibit FabD” value (E. coli FabD) is reported as “potent inhibitors”.
With `Cc1cc(C)c(NC(=O)C(NC2CCSC2=O)C(C)C)c(C)c1` (stereo not shown) [Compound 15a, 3-Methyl-2-(2-oxo-tetrahydro-thiophen-3-ylamino)-N-(2,4,6-trimethyl-phenyl)-butyramide] the “ability to inhibit FabD” value (E. coli FabD) was “potent inhibitors”.

From patent US20100022520A1, “MALONYL-COA ACETYLTRANSFERASE INHIBITORS AGAINST ANTIBIOTIC RESISTANT BACTERTIA” (University of Pittsburgh -- Of the Commonwealth System of …, priority 2008, published 2010)
